Numbers after ± are expanded uncertainties.
How the values were obtained:
[1] = refractive index (Na D-line) (dimensionless); xn = mol fraction of the nth substance listed; conditions: 101.3 kPa, Liquid, Standard Abbe refractometry
[2] = xn = mol fraction of the nth substance listed; conditions: for surface tension liquid-gas: Ring tensiometer; for viscosity / mass density: 101.3 kPa, Liquid; for viscosity: Capillary tube (Ostwald / Ubbelohde) method; for mass density: Vibrating tube method

SMILES: C[P+](c1ccccc1)(c1ccccc1)c1ccccc1.[Br-] [methyltriphenylphosphonium bromide] + NCCO
- refractive index ([1]; 298.15 K, x1 = 0.11): 1.50265 ± 0.00042
- refractive index ([1]; 298.15 K, x1 = 0.13): 1.50587 ± 0.00043
- refractive index ([1]; 298.15 K, x1 = 0.14): 1.51187 ± 0.00043
- refractive index ([1]; 298.15 K, x1 = 0.16): 1.56644 ± 0.00043
- refractive index ([1]; 308.15 K, x1 = 0.11): 1.49911 ± 0.00043
- refractive index ([1]; 308.15 K, x1 = 0.13): 1.50221 ± 0.00042
- refractive index ([1]; 308.15 K, x1 = 0.14): 1.50794 ± 0.00042
- refractive index ([1]; 308.15 K, x1 = 0.16): 1.56247 ± 0.00043
- refractive index ([1]; 318.15 K, x1 = 0.11): 1.49546 ± 0.00042
- refractive index ([1]; 318.15 K, x1 = 0.13): 1.49935 ± 0.00042
- refractive index ([1]; 318.15 K, x1 = 0.14): 1.50501 ± 0.00043
- refractive index ([1]; 318.15 K, x1 = 0.16): 1.55846 ± 0.00043
- refractive index ([1]; 328.15 K, x1 = 0.11): 1.49224 ± 0.00043
- refractive index ([1]; 328.15 K, x1 = 0.13): 1.49519 ± 0.00044
- refractive index ([1]; 328.15 K, x1 = 0.14): 1.50071 ± 0.00043
- refractive index ([1]; 328.15 K, x1 = 0.16): 1.55518 ± 0.00042
- refractive index ([1]; 338.15 K, x1 = 0.11): 1.48802 ± 0.00043
- refractive index ([1]; 338.15 K, x1 = 0.13): 1.49063 ± 0.00044
- refractive index ([1]; 338.15 K, x1 = 0.14): 1.49733 ± 0.00043
- refractive index ([1]; 338.15 K, x1 = 0.16): 1.55159 ± 0.00043
- refractive index ([1]; 348.15 K, x1 = 0.11): 1.48405 ± 0.00043
- refractive index ([1]; 348.15 K, x1 = 0.13): 1.48631 ± 0.00043
- refractive index ([1]; 348.15 K, x1 = 0.14): 1.49343 ± 0.00042
- refractive index ([1]; 348.15 K, x1 = 0.16): 1.54699 ± 0.00044
- refractive index ([1]; 358.15 K, x1 = 0.11): 1.47988 ± 0.00043
- refractive index ([1]; 358.15 K, x1 = 0.13): 1.48215 ± 0.00043
- refractive index ([1]; 358.15 K, x1 = 0.14): 1.49027 ± 0.00042
- refractive index ([1]; 358.15 K, x1 = 0.16): 1.54286 ± 0.00043
- surface tension liquid-gas ([2]; 298.15 K, x1 = 0.11): 50.3 ± 0.7 mN/m
- surface tension liquid-gas ([2]; 298.15 K, x1 = 0.13): 50.2 ± 0.7 mN/m
- surface tension liquid-gas ([2]; 298.15 K, x1 = 0.14): 49.3 ± 0.7 mN/m
- surface tension liquid-gas ([2]; 298.15 K, x1 = 0.16): 48.9 ± 0.7 mN/m
- viscosity ([2]; 298.15 K, x1 = 0.11): 27.7 ± 2.8 mPa·s
- viscosity ([2]; 298.15 K, x1 = 0.13): 28 ± 2.8 mPa·s
- viscosity ([2]; 298.15 K, x1 = 0.14): 35.5 ± 3.6 mPa·s
- viscosity ([2]; 298.15 K, x1 = 0.16): 128.9 ± 13 mPa·s
- mass density ([2]; 298.15 K, x1 = 0.11): 1092.9 ± 2.2 kg/m3
- mass density ([2]; 298.15 K, x1 = 0.13): 1099.8 ± 2.2 kg/m3
- mass density ([2]; 298.15 K, x1 = 0.14): 1107.4 ± 2.3 kg/m3
- mass density ([2]; 298.15 K, x1 = 0.16): 1195.8 ± 2.4 kg/m3
- surface tension liquid-gas ([2]; 308.15 K, x1 = 0.11): 49.5 ± 0.7 mN/m
- surface tension liquid-gas ([2]; 308.15 K, x1 = 0.13): 49.3 ± 0.7 mN/m
- surface tension liquid-gas ([2]; 308.15 K, x1 = 0.14): 48.4 ± 0.7 mN/m
- surface tension liquid-gas ([2]; 308.15 K, x1 = 0.16): 48 ± 0.7 mN/m
- viscosity ([2]; 308.15 K, x1 = 0.11): 20 ± 2 mPa·s
- viscosity ([2]; 308.15 K, x1 = 0.13): 20 ± 2 mPa·s
- viscosity ([2]; 308.15 K, x1 = 0.14): 20.7 ± 2.1 mPa·s
- viscosity ([2]; 308.15 K, x1 = 0.16): 84.9 ± 8.7 mPa·s
- mass density ([2]; 308.15 K, x1 = 0.11): 1085 ± 2.2 kg/m3
- mass density ([2]; 308.15 K, x1 = 0.13): 1091.9 ± 2.2 kg/m3
- mass density ([2]; 308.15 K, x1 = 0.14): 1100 ± 2.2 kg/m3
- mass density ([2]; 308.15 K, x1 = 0.16): 1187.9 ± 2.4 kg/m3
- surface tension liquid-gas ([2]; 318.15 K, x1 = 0.11): 48.6 ± 0.7 mN/m
- surface tension liquid-gas ([2]; 318.15 K, x1 = 0.13): 48.2 ± 0.7 mN/m
- surface tension liquid-gas ([2]; 318.15 K, x1 = 0.14): 47.6 ± 0.7 mN/m
- surface tension liquid-gas ([2]; 318.15 K, x1 = 0.16): 47.2 ± 0.7 mN/m
- viscosity ([2]; 318.15 K, x1 = 0.11): 13.6 ± 1.4 mPa·s
- viscosity ([2]; 318.15 K, x1 = 0.13): 13.1 ± 1.3 mPa·s
- viscosity ([2]; 318.15 K, x1 = 0.14): 13.6 ± 1.4 mPa·s
- viscosity ([2]; 318.15 K, x1 = 0.16): 37.9 ± 4 mPa·s
- mass density ([2]; 318.15 K, x1 = 0.11): 1077.1 ± 2.2 kg/m3
- mass density ([2]; 318.15 K, x1 = 0.13): 1083.8 ± 2.2 kg/m3
- mass density ([2]; 318.15 K, x1 = 0.14): 1092.2 ± 2.2 kg/m3
- mass density ([2]; 318.15 K, x1 = 0.16): 1180.1 ± 2.4 kg/m3
- surface tension liquid-gas ([2]; 328.15 K, x1 = 0.11): 47.8 ± 0.7 mN/m
- surface tension liquid-gas ([2]; 328.15 K, x1 = 0.13): 47.2 ± 0.7 mN/m
- surface tension liquid-gas ([2]; 328.15 K, x1 = 0.14): 46.7 ± 0.7 mN/m
- surface tension liquid-gas ([2]; 328.15 K, x1 = 0.16): 46.4 ± 0.7 mN/m
- viscosity ([2]; 328.15 K, x1 = 0.11): 9.5 ± 1 mPa·s
- viscosity ([2]; 328.15 K, x1 = 0.13): 9.1 ± 0.9 mPa·s
- viscosity ([2]; 328.15 K, x1 = 0.14): 10 ± 1 mPa·s
- viscosity ([2]; 328.15 K, x1 = 0.16): 25.4 ± 2.6 mPa·s
- mass density ([2]; 328.15 K, x1 = 0.11): 1068.9 ± 2.2 kg/m3
- mass density ([2]; 328.15 K, x1 = 0.13): 1075.8 ± 2.2 kg/m3
- mass density ([2]; 328.15 K, x1 = 0.14): 1084.2 ± 2.2 kg/m3
- mass density ([2]; 328.15 K, x1 = 0.16): 1172.3 ± 2.4 kg/m3
- surface tension liquid-gas ([2]; 338.15 K, x1 = 0.11): 46.9 ± 0.7 mN/m
- surface tension liquid-gas ([2]; 338.15 K, x1 = 0.13): 46.3 ± 0.7 mN/m
- surface tension liquid-gas ([2]; 338.15 K, x1 = 0.14): 45.9 ± 0.7 mN/m
- surface tension liquid-gas ([2]; 338.15 K, x1 = 0.16): 45.6 ± 0.7 mN/m
- viscosity ([2]; 338.15 K, x1 = 0.11): 7 ± 0.7 mPa·s
- viscosity ([2]; 338.15 K, x1 = 0.13): 6.9 ± 0.7 mPa·s
- viscosity ([2]; 338.15 K, x1 = 0.14): 7.5 ± 0.8 mPa·s
- viscosity ([2]; 338.15 K, x1 = 0.16): 15.6 ± 1.6 mPa·s
- mass density ([2]; 338.15 K, x1 = 0.11): 1060.8 ± 2.2 kg/m3
- mass density ([2]; 338.15 K, x1 = 0.13): 1067.6 ± 2.2 kg/m3
- mass density ([2]; 338.15 K, x1 = 0.14): 1076.1 ± 2.2 kg/m3
- mass density ([2]; 338.15 K, x1 = 0.16): 1164.5 ± 2.4 kg/m3
- surface tension liquid-gas ([2]; 348.15 K, x1 = 0.11): 46.2 ± 0.7 mN/m
- surface tension liquid-gas ([2]; 348.15 K, x1 = 0.13): 45.3 ± 0.6 mN/m
- surface tension liquid-gas ([2]; 348.15 K, x1 = 0.14): 44.9 ± 0.6 mN/m
- surface tension liquid-gas ([2]; 348.15 K, x1 = 0.16): 44.8 ± 0.6 mN/m
- viscosity ([2]; 348.15 K, x1 = 0.11): 5.4 ± 0.5 mPa·s
- viscosity ([2]; 348.15 K, x1 = 0.13): 5.4 ± 0.5 mPa·s
- viscosity ([2]; 348.15 K, x1 = 0.14): 5.6 ± 0.6 mPa·s
- viscosity ([2]; 348.15 K, x1 = 0.16): 10.7 ± 1.1 mPa·s
- mass density ([2]; 348.15 K, x1 = 0.11): 1052.7 ± 2.2 kg/m3
- mass density ([2]; 348.15 K, x1 = 0.13): 1059.4 ± 2.2 kg/m3
- mass density ([2]; 348.15 K, x1 = 0.14): 1068 ± 2.2 kg/m3
- mass density ([2]; 348.15 K, x1 = 0.16): 1156.6 ± 2.4 kg/m3
- surface tension liquid-gas ([2]; 358.15 K, x1 = 0.11): 45.3 ± 0.6 mN/m
- surface tension liquid-gas ([2]; 358.15 K, x1 = 0.13): 44.4 ± 0.6 mN/m
- surface tension liquid-gas ([2]; 358.15 K, x1 = 0.14): 44.2 ± 0.6 mN/m
- surface tension liquid-gas ([2]; 358.15 K, x1 = 0.16): 44 ± 0.6 mN/m
- viscosity ([2]; 358.15 K, x1 = 0.11): 4.7 ± 0.5 mPa·s
- viscosity ([2]; 358.15 K, x1 = 0.13): 4.8 ± 0.5 mPa·s
- viscosity ([2]; 358.15 K, x1 = 0.14): 4.9 ± 0.5 mPa·s
- viscosity ([2]; 358.15 K, x1 = 0.16): 9.1 ± 0.9 mPa·s
- mass density ([2]; 358.15 K, x1 = 0.11): 1044.7 ± 2.1 kg/m3
- mass density ([2]; 358.15 K, x1 = 0.13): 1051.1 ± 2.2 kg/m3
- mass density ([2]; 358.15 K, x1 = 0.14): 1059.8 ± 2.2 kg/m3
- mass density ([2]; 358.15 K, x1 = 0.16): 1148.8 ± 2.3 kg/m3
